Experimental data from ChEMBL document CHEMBL1201862, “PubChem BioAssay data set” (2004).
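96-well plates; 48 h exposure; 5 concentrations. Endpoints by linear interpolation between flanking doses. Not reached: highest tested concentration assigned. At the GI50, growth is halved.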 Calls of active or inactive are those of the source. Cut-off read from the data, not from the text of the source: active = GI50 up to about 1.1 µM and inactive = higher.

Columns and labels:
Assay in all cases: DTP human tumour cell line panel, 48 h
RPMI-8226 = test system: RPMI-8226
SNB-19 = test system: SNB-19
HCT-116 = test system: HCT-116
NCI-H460 = test system: NCI-H460
SK-MEL-28 = test system: SK-MEL-28
PC-3 = test system: PC-3
OVCAR-3 = test system: OVCAR-3
RXF 393 = test system: RXF 393
UACC-257 = test system: UACC-257
HL-60 = test system: HL-60
KM12 = test system: KM12
SN12C = test system: SN12C
EKVX = test system: EKVX
M14 = test system: M14
MOLT-4 = test system: MOLT-4
CCRF-CEM = test system: CCRF-CEM
HCT-15 = test system: HCT-15
NCI-H23 = test system: NCI-H23
SF-539 = test system: SF-539
SR = test system: SR

| SMILES | GI50 (RPMI-8226) | GI50 (SNB-19) | GI50 (HCT-116) | GI50 (NCI-H460) | GI50 (SK-MEL-28) | GI50 (PC-3) | GI50 (OVCAR-3) | GI50 (RXF 393) | GI50 (UACC-257) | GI50 (HL-60) | GI50 (KM12) | GI50 (SN12C) | GI50 (EKVX) | GI50 (M14) | GI50 (MOLT-4) | GI50 (CCRF-CEM) | GI50 (HCT-15) [µM] | GI50 (NCI-H23) | GI50 (SF-539) | GI50 (SR) |
| --- | --- | --- | --- | --- | --- | --- | --- | --- | --- | --- | --- | --- | --- | --- | --- | --- | --- | --- | --- | --- |
| CC(C)CC(O)P(=O)(O)O.NC1CCCCC1 (stereo not drawn) | > 100 µM (inactive) | > 100 µM (inactive) | > 100 µM (inactive) | > 100 µM (inactive) | > 100 µM (inactive) | > 100 µM (inactive) | > 100 µM (inactive) | > 100 µM (inactive) | > 100 µM (inactive) | > 100 µM (inactive) | > 100 µM (inactive) | > 100 µM (inactive) | > 100 µM (inactive) | > 100 µM (inactive) | > 100 µM (inactive) |  |  |  |  |  |
| CN1c2ccccc2C(=O)Nc2cnc(Cl)nc21 | > 100 µM (inactive) | 36.6 µM (inactive) | > 100 µM (inactive) |  | > 100 µM (inactive) | > 100 µM (inactive) | > 100 µM (inactive) | > 100 µM (inactive) | > 100 µM (inactive) | > 100 µM (inactive) | > 100 µM (inactive) | 66.7 µM (inactive) | > 100 µM (inactive) | > 100 µM (inactive) | > 100 µM (inactive) | > 100 µM (inactive) | > 100 | > 100 µM (inactive) | 49.1 µM (inactive) |  |
| CC(C)(C)OC(=O)NCCCCC(N)C(N)=O (stereo not drawn) | > 100 µM (inactive) | > 100 µM (inactive) | > 100 µM (inactive) | > 100 µM (inactive) | > 100 µM (inactive) | > 100 µM (inactive) | > 100 µM (inactive) | > 100 µM (inactive) | > 100 µM (inactive) |  | > 100 µM (inactive) | > 100 µM (inactive) | > 100 µM (inactive) | > 100 µM (inactive) | > 100 µM (inactive) | > 100 µM (inactive) | > 100 | > 100 µM (inactive) | > 100 µM (inactive) |  |
| CC(=O)Oc1ccc(/C=C/C(=O)O[C@@H](C(=O)O)[C@@H](OC(=O)/C=C/c2ccc(OC(C)=O)c(OC(C)=O)c2)C(=O)O)cc1OC(C)=O | > 100 µM (inactive) | > 100 µM (inactive) | > 100 µM (inactive) | > 100 µM (inactive) | > 100 µM (inactive) | > 100 µM (inactive) | > 100 µM (inactive) | > 100 µM (inactive) | > 100 µM (inactive) |  | > 100 µM (inactive) | > 100 µM (inactive) | > 100 µM (inactive) | > 100 µM (inactive) |  | > 100 µM (inactive) | > 100 | > 100 µM (inactive) |  | > 100 µM (inactive) |
| C[N+](C)(C)c1ncnc2c1ncn2C1CCCO1 (stereo not drawn) | > 100 µM (inactive) | > 100 µM (inactive) | > 100 µM (inactive) | > 100 µM (inactive) | > 100 µM (inactive) | > 100 µM (inactive) | > 100 µM (inactive) | > 100 µM (inactive) | > 100 µM (inactive) | 56.4 µM (inactive) | > 100 µM (inactive) | > 100 µM (inactive) | > 100 µM (inactive) | > 100 µM (inactive) | > 100 µM (inactive) | > 100 µM (inactive) | > 100 | > 100 µM (inactive) | > 100 µM (inactive) |  |
| COc1cc(C2S/C(=C/c3ccccc3)C(=O)N2c2cccc(Cl)c2)cc(OC)c1OC (stereo not drawn) | 24.8 µM (inactive) | 42.9 µM (inactive) | 36.3 µM (inactive) | 34.4 µM (inactive) | 78.3 µM (inactive) | 51.8 µM (inactive) | 30.1 µM (inactive) |  | 23.6 µM (inactive) | 30.9 µM (inactive) | 27.4 µM (inactive) | 55.2 µM (inactive) | 37.2 µM (inactive) | 62.8 µM (inactive) | 22 µM (inactive) | 25.6 µM (inactive) | 34.8 | 94.4 µM (inactive) | 31 µM (inactive) | 19.4 µM (inactive) |
| Clc1ccc(CCN2CCN(CCCc3ccccc3)CC2)cc1Cl | 20.9 µM (inactive) | 16.6 µM (inactive) | 15.1 µM (inactive) | 17.7 µM (inactive) | 18.7 µM (inactive) | 17.7 µM (inactive) | 16.4 µM (inactive) |  | 17.1 µM (inactive) | 15.7 µM (inactive) | 17.7 µM (inactive) | 16 µM (inactive) | 17.4 µM (inactive) | 14.4 µM (inactive) | 29.6 µM (inactive) | 33.3 µM (inactive) | 13.5 | 16.9 µM (inactive) | 17.8 µM (inactive) | 26.7 µM (inactive) |
| CCCC(=O)OC1CC(n2cc(F)c(=O)[nH]c2=O)OC1COP(=O)(OCC(Cl)(Cl)Cl)OCC(Cl)(Cl)Cl (stereo not drawn) | 1.47 µM (inactive) | 3.15 µM (inactive) | 3.18 µM (inactive) | 0.0351 µM (active) | 12.3 µM (inactive) | 7.74 µM (inactive) | 4.24 µM (inactive) |  | 21.7 µM (inactive) | 10.8 µM (inactive) | 19.1 µM (inactive) | 22 µM (inactive) | 43.8 µM (inactive) | 2.06 µM (inactive) | 2.48 µM (inactive) | 0.372 µM (active) | 22.1 | 11 µM (inactive) |  | 1.25 µM (inactive) |
